Source: PMC7994582 (Communications Biology, 2021)
Where a SMILES comes first, the peptide text is derived from it. [ ]: non-standard residue; d: D form. pS = N[C@@H](COP(=O)(O)O)C(=O)O

Key:
[1] = target: T1, Ess1 (Saccharomyces cerevisiae, UniProt P22696, R8S); test: NMR 1H-15N HSQC titration, Kd determination (single-site model); format: binding
T1 construct: Full-length Ess1 or Ess1 C120S plasmid was used to transform E. coli cells; 6xHis (cleaved yes); made in house; host or cells: E. coli Rosetta II (DE3) pLysS, isotope-labeled M9 minimal media
T1 sequence (P22696 whole entry R8S): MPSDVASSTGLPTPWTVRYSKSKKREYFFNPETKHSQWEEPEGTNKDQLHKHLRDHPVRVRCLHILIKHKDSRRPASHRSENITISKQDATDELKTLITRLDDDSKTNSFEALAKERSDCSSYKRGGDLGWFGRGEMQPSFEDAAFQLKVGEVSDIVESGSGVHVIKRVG
Procedure: Binding was monitored by recording ^1H–^15N HSQC spectra at different peptide to protein ratios. For each backbone amide, we assumed that the CSP was a weighted average between the free (Δδ = 0) and ligand-bound (Δδ = Δδbound) states, such that Δδ = Δδbound * [PL]/[Ptotal]. Here, [PL] and [Ptotal] represent the ligand-bound protein concentration, and Ptotal is the total protein concentration of Ess1. The CSP for each amide was calculated using the equation CSP=ΔδH^2+ΔδN/5^2 where ΔδH and ΔδN represent the change in chemical shift in the ^1H and ^15N dimensions, such that Δδ = 0 when calculating the CSP for the reference spectrum (in the absence of ligand). To obtain the dissociation binding constant, Kd, we used the single-site binding equation, PL=(([Ptotal]+[Ltotal]+Kd)−([Ptotal]+[Ltotal]+Kd)^2−4*[Ptotal]*[Ltotal])/2 , where [Ptotal] and [Ltotal] are total protein (Ess1) and ligand (CTD peptide) concentrations, respectively. Fitting was performed using an in-house Matlab script. […] Errors represent standard deviation of residue-specific Kd values.

[2] = target: T1, Ess1; test: Competition fluorescence anisotropy (unlabeled CTD peptides vs. FITC-1R-CTD for Ess1 binding); conditions: for Normalized Anisotropy: competition vs FITC-1R-CTD, mean
Procedure: A 1 repeat CTD peptide labeled with FITC at its N-terminus was used as a probe (FITC-1R, Table 2). […] Each point represents an average (±SD) of n = 2 or 3 from independent experiments.
Fluorescence anisotropy measurements were performed in a Hidex Sense microplate reader using an excitation wavelength of 485 nm and an emission wavelength of 535 nm. Measurements were performed in 20 mM Tris pH 8.0, 3 mM TCEP buffer. […] Competition data was used to calculate IC50 values to compare the affinity differences between all five substrates (Eq. (1)).1 Competitionmodel:f1=min+max−min/1+x/IC50∧−Hillslope

[3] = target: 1R CTD peptide CTD 1 repeat (Saccharomyces cerevisiae) (UniProt P04050); conditions: cited from earlier work
1R CTD peptide CTD 1 repeat (Saccharomyces cerevisiae), sequence (P04050 whole entry, looked up, tested part not stated): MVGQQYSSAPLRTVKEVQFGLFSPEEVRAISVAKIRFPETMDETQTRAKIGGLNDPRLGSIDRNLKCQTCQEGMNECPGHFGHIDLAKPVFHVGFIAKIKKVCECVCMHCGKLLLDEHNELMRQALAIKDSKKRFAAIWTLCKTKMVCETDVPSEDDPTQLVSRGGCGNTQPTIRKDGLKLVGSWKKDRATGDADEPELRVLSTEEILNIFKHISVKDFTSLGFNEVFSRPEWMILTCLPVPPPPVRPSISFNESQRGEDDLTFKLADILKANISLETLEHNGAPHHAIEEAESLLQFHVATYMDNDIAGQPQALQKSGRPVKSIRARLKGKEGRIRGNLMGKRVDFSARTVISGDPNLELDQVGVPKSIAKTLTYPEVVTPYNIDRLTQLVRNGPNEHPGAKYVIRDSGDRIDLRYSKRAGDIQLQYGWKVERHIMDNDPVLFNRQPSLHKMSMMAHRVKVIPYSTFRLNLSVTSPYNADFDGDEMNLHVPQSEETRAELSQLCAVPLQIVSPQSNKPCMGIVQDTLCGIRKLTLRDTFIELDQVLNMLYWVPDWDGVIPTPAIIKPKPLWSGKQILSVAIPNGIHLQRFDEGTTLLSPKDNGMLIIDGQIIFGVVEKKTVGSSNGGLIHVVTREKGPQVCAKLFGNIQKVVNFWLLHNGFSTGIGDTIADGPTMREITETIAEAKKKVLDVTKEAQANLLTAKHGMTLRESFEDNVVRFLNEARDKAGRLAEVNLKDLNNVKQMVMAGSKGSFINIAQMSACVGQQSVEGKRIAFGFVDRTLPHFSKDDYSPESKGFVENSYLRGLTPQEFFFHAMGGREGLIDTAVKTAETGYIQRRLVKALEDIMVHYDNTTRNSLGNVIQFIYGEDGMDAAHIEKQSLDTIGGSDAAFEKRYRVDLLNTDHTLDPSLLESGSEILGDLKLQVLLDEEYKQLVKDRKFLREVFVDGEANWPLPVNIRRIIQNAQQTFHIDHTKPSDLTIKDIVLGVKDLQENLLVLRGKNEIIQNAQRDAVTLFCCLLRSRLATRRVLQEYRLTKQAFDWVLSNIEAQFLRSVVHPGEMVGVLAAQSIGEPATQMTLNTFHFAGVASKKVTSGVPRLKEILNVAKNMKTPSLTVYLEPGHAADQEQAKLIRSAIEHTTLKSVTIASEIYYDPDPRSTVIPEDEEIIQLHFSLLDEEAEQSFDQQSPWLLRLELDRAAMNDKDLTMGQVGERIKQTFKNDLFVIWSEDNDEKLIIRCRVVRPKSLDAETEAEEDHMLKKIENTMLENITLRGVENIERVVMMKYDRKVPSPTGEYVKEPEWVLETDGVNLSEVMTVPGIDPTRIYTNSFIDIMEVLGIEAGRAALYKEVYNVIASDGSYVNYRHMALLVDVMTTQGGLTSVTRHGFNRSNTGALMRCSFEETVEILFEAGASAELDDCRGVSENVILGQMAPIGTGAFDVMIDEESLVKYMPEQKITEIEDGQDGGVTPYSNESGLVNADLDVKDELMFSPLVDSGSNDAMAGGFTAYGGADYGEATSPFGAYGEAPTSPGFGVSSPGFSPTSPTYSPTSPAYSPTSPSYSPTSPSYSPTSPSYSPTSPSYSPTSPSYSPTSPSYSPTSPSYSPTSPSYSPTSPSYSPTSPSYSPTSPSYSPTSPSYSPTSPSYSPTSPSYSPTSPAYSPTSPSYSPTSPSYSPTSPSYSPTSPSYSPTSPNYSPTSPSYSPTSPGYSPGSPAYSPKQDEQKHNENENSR

[4] = residue-specific, 1 to 1 binding fit of NMR titration

Ess1 (from UniProt P22696), sequence (P22696 whole entry): as the sequence (P22696 whole entry R8S) above, with S8R counted along it

## CC(=O)N[C@@H](C)C(=O)N[C@@H](CO)C(=O)N[C@@H](Cc1ccc(O)cc1)C(=O)N[C@@H](CO)C(=O)N1CCC[C@H]1C(=O)N[C@H](C(=O)N[C@@H](COP(=O)(O)O)C(=O)N1CCC[C@H]1C(=O)N[C@@H](CO)C(=O)N[C@@H](Cc1ccc(O)cc1)C(=O)N[C@@H](CO)C(N)=O)[C@@H](C)O [1R] (Ac-ASYSPT[pS]PSYS-NH2)
[1]
  Kd: 155 µM
[1]; [4]
  Kd, Ess1 residue 16: 119.2 µM
  Kd, Ess1 residue 17: 111.1 µM
  Kd, Ess1 residue 18: 151.9 µM
  Kd, Ess1 residue 19: 153.7 µM
  Kd, Ess1 residue 23: 148.5 µM
  Kd, Ess1 residue 25: 124.8 µM
  Kd, Ess1 residue 26: 196.0 µM
  Kd, Ess1 residue 27: 128.9 µM
  Kd, Ess1 residue 28: 161.3 µM
  Kd, Ess1 residue 29: 141.4 µM
  Kd, Ess1 residue 30: 103.1 µM
  Kd, Ess1 residue 34: 233.3 µM
  Kd, Ess1 residue 35: 274.5 µM
  Kd, Ess1 residue 37: 153.0 µM
  Kd, Ess1 residue 38: 102.8 µM
  Kd, Ess1 residue 39: 153.9 µM
  Kd, Ess1 residue 40: 157.5 µM
  Kd, Ess1 residue 48: 156.8 µM
  Kd, Ess1 residue 49: 216.2 µM
  Kd, Ess1 residue 52: 132.6 µM
  Kd, Ess1 residue 58: 96.2 µM
  Kd, Ess1 residue 59: 156.4 µM
  Kd, Ess1 residue 64: 134.1 µM
  Kd, Ess1 residue 70: 111.0 µM
  Kd, Ess1 residue 73: 89.4 µM
  Kd, Ess1 residue 84: 119.4 µM
  Kd, Ess1 residue 87: 180.8 µM
  Kd, Ess1 residue 123: 227.8 µM
  Kd, Ess1 residue 130: 175.2 µM
  Kd, Ess1 residue 131: 207.7 µM
  Kd, Ess1 residue 133: 166.8 µM
  Kd, Ess1 residue 137: 128.3 µM
  Kd, Ess1 residue 145: 205.8 µM
  Kd, Ess1 residue 146: 235.1 µM
  Kd, Ess1 residue 149: 100.8 µM
  Kd, Ess1 residue 150: 113.4 µM
  Kd, Ess1 residue 157: 151.8 µM
  Kd, Ess1 residue 158: 122.1 µM
  Kd, Ess1 residue 159: 176.3 µM
  Kd, Ess1 residue 162: 71.8 µM
  Kd, Ess1 residue 164: 188.7 µM
[2]
  IC50: 259 ± 33 µM
[2]; [1R CTD] 21 μM
  Normalized Anisotropy: 0.9587
[2]; [1R CTD] 42 μM
  Normalized Anisotropy: 0.9533
[2]; [1R CTD] 84 μM
  Normalized Anisotropy: 0.9581
[2]; [1R CTD] 280 μM
  Normalized Anisotropy: 0.8033
[2]; [1R CTD] 336 μM
  Normalized Anisotropy: 0.7637
[2]; [1R CTD] 560 μM
  Normalized Anisotropy: 0.6982

## CC(=O)N[C@@H](Cc1ccc(O)cc1)C(=O)N[C@@H](CO)C(=O)N1CCC[C@H]1C(=O)N[C@H](C(=O)N[C@@H](COP(=O)(O)O)C(=O)N1CCC[C@H]1C(=O)N[C@@H](CO)C(=O)N[C@@H](Cc1ccc(O)cc1)C(=O)N[C@@H](CO)C(=O)N1CCC[C@H]1C(=O)N[C@H](C(=O)N[C@@H](COP(=O)(O)O)C(=O)N1CCC[C@H]1C(=O)N[C@@H](CO)C(N)=O)[C@@H](C)O)[C@@H](C)O [2R]
[2]
  IC50: 59 µM
[2]; [2R CTD] 29.25 μM
  Normalized Anisotropy: 0.8399
[2]; [2R CTD] 58.5 μM
  Normalized Anisotropy: 0.6905
[2]; [2R CTD] 234 μM
  Normalized Anisotropy: 0.4873

## Ess1 (from UniProt P22696)
[3]
  Kd: 60 µM
